Results taken from ChEMBL document CHEMBL1201862, “PubChem BioAssay data set” (2004).
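Cultured in 96-well plates, cells were exposed to test compound for 48 hours across five concentrations. GI50 marks 50% less growth.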 The source made the active and inactive calls. Cut-off read from the data, not from the text of the source: active = GI50 up to about 1.1 µM and inactive = higher.

Assays:
Experiment in all cases: DTP human tumour cell line panel, 48 h
SK-MEL-28 = system: SK-MEL-28
SR = system: SR
UACC-257 = system: UACC-257
SN12C = system: SN12C
COLO 205 = system: COLO 205
UO-31 = system: UO-31
A498 = system: A498
UACC-62 = system: UACC-62
HT-29 = system: HT-29
SW-620 = system: SW-620
Malme-3M = system: Malme-3M
LOX IMVI = system: LOX IMVI
OVCAR-8 = system: OVCAR-8
NCI-H522 = system: NCI-H522
HCT-116 = system: HCT-116
MDA-MB-231 = system: MDA-MB-231
T47D = system: T47D
RPMI-8226 = system: RPMI-8226
HCT-15 = system: HCT-15

`COc1ccc(C(c2cc(OC)c(OC)c(OC)c2)N2C(=O)CCC2C(=O)O)cc1` (configuration not stated) was tested, and the GI50 (SK-MEL-28) was 51.1 µM (inactive), the GI50 (SR) was 49.7 µM (inactive) and the GI50 (UACC-257) was > 100 µM (inactive). For the same molecule, the GI50 (SN12C) was > 100 µM (inactive), the GI50 (COLO 205) was 41 µM (inactive) and the GI50 (UO-31) was 56.4 µM (inactive). For the same molecule, the GI50 (A498) was 77.1 µM (inactive), the GI50 (UACC-62) was 51.3 µM (inactive) and the GI50 (HT-29) was 35.6 µM (inactive). The GI50 (SW-620) was 50.1 µM (inactive), the GI50 (Malme-3M) was 68.9 µM (inactive) and the GI50 (LOX IMVI) was 66.8 µM (inactive). For the same molecule, the GI50 (OVCAR-8) was 41.8 µM (inactive), the GI50 (NCI-H522) was 52.1 µM (inactive) and the GI50 (HCT-116) was 35.5 µM (inactive). For the same molecule, the GI50 (MDA-MB-231) was > 100 µM (inactive), the GI50 (T47D) was 47.2 µM (inactive) and the GI50 (RPMI-8226) was 49.8 µM (inactive). For the same molecule, the GI50 (HCT-15) was 43.9 µM.

For `COc1ccc2c(c1)C(=O)C1(C2)[C@H](c2ccccc2)C2C(=O)c3cc(OC)ccc3C2[C@H]1c1ccccc1` (some centres not stated), the GI50 (SK-MEL-28) was > 100 µM (inactive), the GI50 (SR) was > 100 µM (inactive) and the GI50 (UACC-257) was > 100 µM (inactive). For the same molecule, the GI50 (SN12C) was > 100 µM (inactive), the GI50 (COLO 205) was > 100 µM (inactive) and the GI50 (UO-31) was > 100 µM (inactive). For the same molecule, the GI50 (A498) was > 100 µM (inactive), the GI50 (UACC-62) was > 100 µM (inactive) and the GI50 (HT-29) was > 100 µM (inactive). For the same molecule, the GI50 (SW-620) was > 100 µM (inactive), the GI50 (Malme-3M) was > 100 µM (inactive) and the GI50 (LOX IMVI) was > 100 µM (inactive). The GI50 (OVCAR-8) was > 100 µM (inactive), the GI50 (NCI-H522) was > 100 µM (inactive) and the GI50 (HCT-116) was > 100 µM (inactive). For the same molecule, the GI50 (MDA-MB-231) was > 100 µM (inactive), the GI50 (T47D) was > 100 µM (inactive) and the GI50 (RPMI-8226) was 43.7 µM (inactive). For the same molecule, the GI50 (HCT-15) was greater than 100 µM.

`CCC/C(Cl)=N/OC(=O)Nc1cccc(F)c1` was tested, and the GI50 (SK-MEL-28) was 5.12 µM (inactive), the GI50 (SR) was 0.453 µM (active) and the GI50 (UACC-257) was 14.8 µM (inactive). For the same molecule, the GI50 (SN12C) was 6.75 µM (inactive), the GI50 (COLO 205) was 2.19 µM (inactive) and the GI50 (UO-31) was 8.97 µM (inactive). The GI50 (A498) was > 10 µM (inactive), the GI50 (UACC-62) was 14.4 µM (inactive) and the GI50 (HT-29) was 4.91 µM (inactive). For the same molecule, the GI50 (SW-620) was 1.8 µM (inactive), the GI50 (Malme-3M) was 1.73 µM (inactive) and the GI50 (LOX IMVI) was 1.91 µM (inactive). For the same molecule, the GI50 (OVCAR-8) was 16 µM (inactive), the GI50 (NCI-H522) was 0.309 µM (active) and the GI50 (HCT-116) was 4.19 µM (inactive). The GI50 (MDA-MB-231) was 13.1 µM (inactive), the GI50 (T47D) was 2.71 µM (inactive) and the GI50 (RPMI-8226) was 1.96 µM (inactive). It also gave a GI50 (HCT-15) of 1.85 µM.
